Tests used:
Type in all cases: cell-based, human
[1] = test system: heparin sulfate expression in ES2 cells; experiment: Microarray gene expression, Table 10
Experimental: (§1) Y/D is the ratio (in folds) of gene expression in cells treated with compound Y as compared with those of the no drug control (D),
(§2) YM/D is the ratio of gene expression in cells treated with compound YM (ACH-Y, Y without sugar moiety) compared with those of the no drug control (D)
(§3) Cell culture and drug-treatment.: ES2 cells were seeded in a T-25 flask with 4.5 million cells per flask for 24 hours. Cell culture was replaced with fresh medium with xanifolia-Y (Y) or DMSO no drug control (D) for 24 hours. Cells were then harvested for RNA isolation. Three experiments were done.
(§4) RNA extraction, labeling, hybridization, and data analysis. RNA was extracted from tumor cells using the Qiagen RNeasy Kit. RNA quality and quantity was checked by the Agilent BioAnalyzer and the NanoDrop® ND-1000 spectrophotometer respectively before further manipulation. The first and second cDNA strands were synthesized from 20 ng of total RNA using the Affymetrix T7 oligo(dT) primer protocol and kit for the two-cycle amplification. To produce amplified biotin-labeled-cRNA, the cDNA was […] by in vitro transcription using the MegaScript kit from Ambion. 15.0 μg of the labeled cRNA was fragmented and re-checked for concentration using the NanoDrop® ND-1000 spectrophotometer. A hybridization cocktail containing Affymetrix spike-in controls and fragmented labeled cRNA was loaded onto the Human U133 Plus 2.0 GeneChip® oligonucleotide array. The Affymetrix array (Affymetrix, Inc. Santa Clara, Calif.) is comprised of over 1,300,000 unique oligonucleotide features that represent greater than 38,500 well-substantiated human genes. The array was hybridized for 16 hours at 45° C. with rotation at 60 rpm then washed and stained with a strepavidin, R-phycoerythrin conjugate stain on the Affymetrix Fluidicis Station 450. Signal amplification was done using biotinylated antistreptavidin. The arrays were scanned using the GeneChip® 3000 confocal laser scanner with autoloader. The images were analyzed and quality control metrics recorded using Affymetrix GCOS software version 1.4. Lastly, the expression value for each gene was calculated using dChip PM-only model based or Plier algorithm.
(§5) Pairwise comparisons were made as follows: Treated vs. Control (Y vs. D), Modified Drug vs Control (YM/ACY-H vs. D) and Treated vs. Modified Drug (Y vs. YM/ACH-Y) Cel files analyzed using the Bioconductor package of R Statistical programming. Limma analysis generated a reasonable number of changing genes between the samples.
(§6) The raw data in the .CEL files were normalized by the GCRMA method (robust multi-array analysis). It is implemented in Bioconductor (http://www.bioconductor.org/). The raw signal intensity data were normalized, background corrected and summarized based on certain statistical models, and an expression value, in log 2-scale, is obtained per chip per probe set. Then the null hypothesis was tested that there's no significant changes in gene expression between the treatment pairs. This was done by LIMMA and is also implemented in Bioconductor. It uses empirical Bayes method to estimate the variance in gene expression. One comparison was made, namely, High Grade vs. Low Grade. The raw p-values were adjusted by the Benjamnin-Hochberg method for false discovery rate (FDR) control. All data sets contained a significant number of genes with a p-value less than 0.05, which is that the probability that a gene is NOT differential expressed (false positive) is 1:20.

[2] = test system: angiopoietin expression in ES2 cells; experiment: Microarray gene expression, Table 12
Experimental: as §1, §2, §3, §4, §5, §6

[3] = test system: cadherins expression in ES2 cells; experiment: Microarray gene expression, Table 8
Experimental: as §1, §2, §3, §4, §5, §6

[4] = test system: collagen expression in ES2 cells; experiment: Microarray gene expression, Table 5
Experimental: as §1, §2, §3, §4, §5, §6

[5] = test system: Fibronectin secretion from skin SK-Mel-5 cells; experiment: Fibronectin secretion (Western blot), SK-MEL-5 cells; details: Homo sapiens
[6] = test system: phosphatase, protein expression in ES2 cells; experiment: Microarray gene expression, Table 19
Experimental: as §1, §2, §3, §4, §5, §6

[7] = test system: regulator of G-protein expression in ES2 cells; experiment: Microarray gene expression, Table 14
Experimental: as §1, §2, §3, §4, §5, §6

[8] = test system: potassium channel, subfamily U, protein expression in ES2 cells; experiment: Microarray gene expression, Table 18; details: probe 237273_at
Experimental: as §1, §2, §3
RNA extraction, labeling, hybridization, and data analysis. RNA was extracted from tumor cells using the Qiagen RNeasy Kit. RNA quality and quantity was checked by the Agilent BioAnalyzer and the NanoDrop® ND-1000 spectrophotometer respectively before further manipulation. […] The images were analyzed and quality control metrics recorded using Affymetrix GCOS software version 1.4. Lastly, the expression value for each gene was calculated using dChip PM-only model based or Plier algorithm.
Pairwise comparisons were made as follows: Treated vs. Control (Y vs. D), Modified Drug vs Control (YM/ACY-H vs. D) and Treated vs. Modified Drug (Y vs. YM/ACH-Y) Cel files analyzed using the Bioconductor package of R Statistical programming. […]

Structure (SMILES): C/C=C(/C)C(=O)O[C@H]1[C@H](OC(=O)/C(C)=C\C)[C@@]2(CO)C(CC1(C)C)C1=CCC3[C@@]4(C)CC[C@H](O[C@@H]5OC(C(=O)O)[C@@H](O)C(O[C@@H]6O[C@@H](CO)C(O)C6O)C5O[C@@H]5OC(CO)[C@H](O)C(O)C5O)C(C)(C)C4CC[C@@]3(C)[C@]1(C)[C@@H](O)[C@H]2O (stereo partly drawn) [Xanifolia-Y, 3-O-[β-D-galactopyranosyl (1→2)]-α-L-arabinofuranosy (1→3)-β-D-glucuronopyranosyl-21,22-O-diangeloyl-3β, 15α, 16α, 21β, 22α, 28-hexahydroxyolean-12-ene]
- HSPG2 heparan sulfate proteoglycan 2 (perlecan), gene expression ratio to no drug control (D) ([1]; probe 201655_s_at): −2.4 folds
- HS2ST1 heparan sulfate 2-O-sulfotransferase 1, gene expression ratio to no drug control (D) ([1]; probe 203284_s_at): −1.3 folds
- HPSE Heparanase, gene expression ratio to no drug control (D) ([1]; probe 219403_s_at): −1.4 folds
- ANGPT2 angiopoietin 2, gene expression ratio to no drug control (D) ([2]; probe 205572_at): 3.5 folds
- ANGPT1 angiopoietin 1, gene expression ratio to no drug control (D) ([2]; probe 205609_at): −1.1 folds
- ANGPT2 angiopoietin 2, gene expression ratio to no drug control (D) ([2]; probe 211148_s_at): 2.5 folds
- ANGPTL4 angiopoietin-like 4, gene expression ratio to no drug control (D) ([2]; probe 221009_s_at): −1.2 folds
- ANGPTL1 Angiopoietin-like 1, gene expression ratio to no drug control (D) ([2]; probe 227533_at): −1.5 folds
- CTNNB1 catenin (cadherin-associated protein), beta 1, 88 kDa, gene expression ratio to no drug control (D) ([3]; probe 201533_at): −1.5 folds
- CTNNAL1 catenin (cadherin-associated protein), alpha-like 1, gene expression ratio to no drug control (D) ([3]; probe 202468_s_at): −1.9 folds
- CDH2 cadherin 2, type 1, N-cadherin (neuronal), gene expression ratio to no drug control (D) ([3]; probe 203440_at): −1.4 folds
- CDH5 cadherin 5, type 2, VE-cadherin, gene expression ratio to no drug control (D) ([3]; probe 204677_at): −1.5 folds
- CDH13 cadherin 13, H-cadherin (heart), gene expression ratio to no drug control (D) ([3]; probe 204726_at): −1.8 folds
- CDH12 cadherin 12, type 2 (N-cadherin 2), gene expression ratio to no drug control (D) ([3]; probe 207149_at): −1.7 folds
- CTNND1 catenin (cadherin-associated, protein), delta 1, gene expression ratio to no drug control (D) ([3]; probe 208407_s_at): −1.5 folds
- CTNNA1 catenin (cadherin-associated protein), alpha 1, 102 kDa, gene expression ratio to no drug control (D) ([3]; probe 210844_x_at): −1.4 folds
- CDH13 cadherin 13, H-cadherin (heart), gene expression ratio to no drug control (D) ([3]; probe 244091_at): −2.0 folds
- P4HB procollagen-proline, 2-oxoglutarate 4-dioxygenase, beta polypeptide, gene expression ratio to no drug control (D) ([4]; probe 200654_at): −1.6 folds
- P4HB procollagen-proline, 2-oxoglutarate 4-dioxygenase, beta polypeptide, gene expression ratio to no drug control (D) ([4]; probe 200656_s_at): −1.8 folds
- PLOD1 procollagen-lysine 1,2-oxoglutarate 5-dioxygenase 1, gene expression ratio to no drug control (D) ([4]; probe 200827_at): −1.7 folds
- COL6A3 collagen, type VI, alpha 3, gene expression ratio to no drug control (D) ([4]; probe 201438_at): −2.4 folds
- PLOD3 procollagen-lysine, 2-oxoglutarate 5-dioxygenase 3, gene expression ratio to no drug control (D) ([4]; probe 202185_at): −1.3 folds
- COL1A1 collagen, type I, alpha 1, gene expression ratio to no drug control (D) ([4]; probe 202311_s_at): −1.6 folds
- PCOLCE procollagen C-endopeptidase enhancer, gene expression ratio to no drug control (D) ([4]; probe 202465_at): −1.3 folds
- PLOD2 procollagen-lysine, 2-oxoglutarate 5-dioxygenase 2, gene expression ratio to no drug control (D) ([4]; probe 202619_s_at): −1.7 folds
- PLOD2 procollagen-lysine, 2-oxoglutarate 5-dioxygenase 2, gene expression ratio to no drug control (D) ([4]; probe 202620_s_at): −1.4 folds
- P4HA2 procollagen-proline, 2-oxoglutarate 4-dioxygenase, alpha polypeptide II, gene expression ratio to no drug control (D) ([4]; probe 202733_at): −1.4 folds
- COL5A1 collagen, type V, alpha 1, gene expression ratio to no drug control (D) ([4]; probe 203325_s_at): −1.7 folds
- P4HA1 procollagen-proline, 2-oxoglutarate 4-dioxygenase, alpha polypeptide I, gene expression ratio to no drug control (D) ([4]; probe 207543_s_at): −2.0 folds
- COL13A1 collagen, type XIII, alpha 1, gene expression ratio to no drug control (D) ([4]; probe 208535_x_at): −1.4 folds
- COL18A1 collagen, type XVIII, alpha 1, gene expression ratio to no drug control (D) ([4]; probe 209081_s_at): −1.7 folds
- COL13A1 collagen, type XIII, alpha 1, gene expression ratio to no drug control (D) ([4]; probe 211343_s_at): −1.9 folds
- COL13A1 collagen, type XIII, alpha 1, gene expression ratio to no drug control (D) ([4]; probe 211809_x_at): −2.0 folds
- COL4A2 collagen, type IV, alpha 2, gene expression ratio to no drug control (D) ([4]; probe 211966_at): −1.8 folds
- COL4A1 collagen, type IV, alpha 1, gene expression ratio to no drug control (D) ([4]; probe 211981_at): −1.6 folds
- COL6A1 collagen, type VI, alpha 1, gene expression ratio to no drug control (D) ([4]; probe 212091_s_at): −1.6 folds
- COL5A1 collagen, type V, alpha 1, gene expression ratio to no drug control (D) ([4]; probe 212489_at): −1.5 folds
- COL4A5 collagen, type IV, alpha 5 (Alport syndrome), gene expression ratio to no drug control (D) ([4]; probe 213110_s_at): −1.6 folds
- COL6A2 collagen, type VI, alpha 2, gene expression ratio to no drug control (D) ([4]; probe 213290_at): −1.6 folds
- COL4A6 collagen, type IV, alpha 6, gene expression ratio to no drug control (D) ([4]; probe 213992_at): −2.0 folds
- COL10A1 collagen, type X, alpha 1, gene expression ratio to no drug control (D) ([4]; probe 217428_s_at): −3.0 folds
- COL5A2 collagen, type V, alpha 2, gene expression ratio to no drug control (D) ([4]; probe 221729_at): −1.3 folds
- COL5A2 collagen, type V, alpha 2, gene expression ratio to no drug control (D) ([4]; probe 221730_at): −1.6 folds
- COL12A1 collagen, type XII, alpha 1, gene expression ratio to no drug control (D) ([4]; probe 231766_s_at): −2.8 folds
- CCBE1 collagen and calcium binding EGF domains 1, gene expression ratio to no drug control (D) ([4]; probe 242324_x_at): −1.3 folds
- COL5A1 collagen, type V, alpha 1, gene expression ratio to no drug control (D) ([4]; probe 1556138_a_at): −2.2 folds
- P4HA2 procollagen-proline, 2-oxoglutarate 4-dioxygenase, alpha polypeptide II, gene expression ratio to no drug control (D) ([4]; probe 1568611_at): −1.3 folds
- expression ratio to the control, collagen ([4]; span over probes of Table 5): −1.3 to −3.0 folds
- inhibition at 10 µg/mL ([5]; 10 ug/ml): 11%
- inhibition at 20 µg/mL ([5]; 20 ug/ml): 40 to 57%
- PPP1R15A protein phosphatase 1, regulatory (inhibitor) subunit 15A, gene expression ratio to no drug control (D) ([6]; probe 37028_at): 2.4 folds
- PPP1R15A protein phosphatase 1, regulatory (inhibitor) subunit 15A, gene expression ratio to no drug control (D) ([6]; probe 202014_at): 2.6 folds
- DUSP10 dual specificity phosphatase 10, gene expression ratio to no drug control (D) ([6]; probe 215501_s_at): 3.2 folds
- DUSP10 dual specificity phosphatase 10, gene expression ratio to no drug control (D) ([6]; probe 221563_at): 3.8 folds
- RGS4 regulator of G-protein signalling 4, gene expression ratio to no drug control (D) ([7]; probe 204337_at): −3.4 folds
- RGS4 regulator of G-protein signalling 4, gene expression ratio to no drug control (D) ([7]; probe 204338_s_at): −2.5 folds
- RGS4 regulator of G-protein signalling 4, gene expression ratio to no drug control (D) ([7]; probe 204339_s_at): −3.5 folds
- KCNU1 potassium channel, subfamily U, member 1, gene expression ratio to no drug control (D) [8]: −4.0 folds

From patent US10213451B2, “Methods and compounds for modulating the secretion or expression of adhesion proteins or angiopoietins of cells” (PACIFIC ARROW LIMITED, priority 2004, dated 2019)
